SMILES strings stand for the structures.

The test concerns C57BL6 mice. Kind of test: HFD-F diet-induced NASH mouse model, BAR502 and UDCA (Example 2). In kind it is in vivo. The following applies: C57BL6 mice on HFD-F for 61 days; oral from day 6; UDCA 30 mg/kg alone or with BAR502 30 mg/kg. The source says: The mouse model of Example 1 was used once again. Using this mouse model, the inventors therefore investigated the effectiveness of the association between BAR502 and UDCA in preventing the development of NASH.

Consider `C[C@H](CCC(=O)O)[C@H]1CC[C@H]2[C@@H]3[C@@H](O)C[C@@H]4C[C@H](O)CC[C@]4(C)[C@H]3CC[C@]12C` [UDCA, ursodesoxycholic acid], for which the “effect on insulin resistance, glucose load curve (OGTT) (FIG. 9)” value is “beneficial effects on insulin resistance”.

The values are drawn from patent publication US20250367215A1, “PHARMACEUTICAL COMBINATION COMPRISING A CHOLANE DERIVATIVE AND A STATIN OR URSODESOXYCHOLIC ACID” (BAR PHARMACEUTICALS SOCIETA' A RESPONSABILITA' LIMITATA, priority 2022, published 2025).
